# Assay results reported in the supplement of paper PMC11208160.
# Assay: recombinant UMI read abundance after kanamycin selection (control-corrected) (log10(CPM+1)); higher = more efficient recombination; extreme values may be limits of the assay; sequences stand for … in AGTGCAGAGAAAATCGGCCAGTTTTCTCTGCCTGCAGTCCGCATGCCGTGGGACCCCTTGGGTTCTAACCTGTTGCCTAGATTTATGCAGCGGACTGCCTTTCTCCCAAAGTGATAAACCGG…AGGTTGGTTTCACT; site = the 11-nt donor
# Method: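 Pooled E. coli donor-specificity screen for the IS621 bridge recombinase. Each library member carries a reprogrammed 11-nt donor and a full-length LE bridge RNA expressed in cis from the natural promoter, with a paired donor-binding loop (8-nt LDG + 4-nt RDG) and a target-binding loop fixed to T5. It is co-electroporated with a T5 target plasmid; recombinase is induced with 0.07 mM IPTG and recombinants are selected on kanamycin. UMIs are counted as CPM, averaged over two biological replicates and corrected by the unselected control. Molecule = full bridge RNA written as DNA, built from the T5 scaffold: LDG = donor specificity nt 1-8, RDG = reverse complement of nt 8-11.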
# 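Note: IS621 bridge recombinase in Escherichia coli cells against a fixed T5 target plasmid.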
row,Sequence,recombinant UMI read abundance (log10)
1,ACAAAATCATGGACCGGTTTTCCCGGTAATCCGTATTTGCA (site ACAAAATCTTG),1.3
2,ACAAAATCATGGACCGGTTTTCCCGGTAATCCGTATTTGCA (site ACAGTATCTTG),1.45
3,ACAAAGGCATGGACCGGTTTTCCCGGTAATCCGTATTTGCT (site AAAAAGGCTAG),0
4,ACAAAGGCATGGACCGGTTTTCCCGGTAATCCGTATTTGCT (site ACAAAGGCTAG),2.57
5,ACAAAGGCATGGACCGGTTTTCCCGGTAATCCGTATTTGCT (site AGAAAGGCTAG),0
6,ACAAAGGCATGGACCGGTTTTCCCGGTAATCCGTATTTGCT (site ATAAAGGCTAG),1.17
7,ACAACTACATGGACCGGTTTTCCCGGTAATCCGTATTTGTG (site ACAACTACTCA),0.844
8,ACAACTACATGGACCGGTTTTCCCGGTAATCCGTATTTGTG (site ACACCTACTCA),0.0441
9,ACAACTACATGGACCGGTTTTCCCGGTAATCCGTATTTGTG (site ACAGCTACTCA),0.0923
10,ACAACTACATGGACCGGTTTTCCCGGTAATCCGTATTTGTG (site ACATCTACTCA),0.146
11,ACAAGAACATGGACCGGTTTTCCCGGTAATCCGTATTTGAG (site ACAAGAACTCT),2.72
12,ACAAGAACATGGACCGGTTTTCCCGGTAATCCGTATTTGAG (site ACCAGAACTCT),0.645
13,ACAAGAACATGGACCGGTTTTCCCGGTAATCCGTATTTGAG (site ACGAGAACTCT),1.41
14,ACAAGAACATGGACCGGTTTTCCCGGTAATCCGTATTTGAG (site ACTAGAACTCT),0.755
15,ACAAGGCCATGGACCGGTTTTCCCGGTAATCCGTATTTGAC (site AAAAGGCCTGT),0
16,ACAAGGCCATGGACCGGTTTTCCCGGTAATCCGTATTTGAC (site ACAAGGCCTGT),0.512
17,ACAAGGCCATGGACCGGTTTTCCCGGTAATCCGTATTTGAC (site AGAAGGCCTGT),0
18,ACAAGGCCATGGACCGGTTTTCCCGGTAATCCGTATTTGAC (site ATAAGGCCTGT),1.34
19,ACAAGTGCATGGACCGGTTTTCCCGGTAATCCGTATTTGGT (site ACAAGTGCTAC),2.04

row,Sequence,recombinant UMI read abundance (log10)
1,ACAAGTGCATGGACCGGTTTTCCCGGTAATCCGTATTTGGT (site ACCAGTGCTAC),0.897
2,ACAAGTGCATGGACCGGTTTTCCCGGTAATCCGTATTTGGT (site ACGAGTGCTAC),1.09
3,ACAAGTGCATGGACCGGTTTTCCCGGTAATCCGTATTTGGT (site ACTAGTGCTAC),1.16
4,ACAATATCATGGACCGGTTTTCCCGGTAATCCGTATTTGCT (site ACAATATCTAG),2.64
5,ACAATATCATGGACCGGTTTTCCCGGTAATCCGTATTTGCT (site ACAGTATCTTG),0.278
6,ACAATGGCATGGACCGGTTTTCCCGGTAATCCGTATTTGAT (site ACAATGGCTAT),2.3
7,ACACAGCCATGGACCGGTTTTCCCGGTAATCCGTATTTGAC (site ACACAACCTGT),0
8,ACACAGCCATGGACCGGTTTTCCCGGTAATCCGTATTTGAC (site ACACACCCTGT),1.68
9,ACACAGCCATGGACCGGTTTTCCCGGTAATCCGTATTTGAC (site ACACAGCCTGT),1.05
10,ACACAGCCATGGACCGGTTTTCCCGGTAATCCGTATTTGAC (site ACACATCCTGT),0.0116
11,ACACAGCCATGGACCGGTTTTCCCGGTAATCCGTATTTGTG (site ACACAGCCTCA),0.606
12,ACACCAACATGGACCGGTTTTCCCGGTAATCCGTATTTGTC (site ACACAAACTGA),0
13,ACACCAACATGGACCGGTTTTCCCGGTAATCCGTATTTGTC (site ACACCAACTGA),1.62
14,ACACCAACATGGACCGGTTTTCCCGGTAATCCGTATTTGTC (site ACACGAACTGA),0
15,ACACCAACATGGACCGGTTTTCCCGGTAATCCGTATTTGTC (site ACACTAACTGA),0
16,ACACCACCATGGACCGGTTTTCCCGGTAATCCGTATTTGAT (site ACACCACCTAT),0.00417
17,ACACCTCCATGGACCGGTTTTCCCGGTAATCCGTATTTGAC (site ACACATCCTGT),0
18,ACACCTCCATGGACCGGTTTTCCCGGTAATCCGTATTTGAC (site ACACCTCCTGT),1.93
19,ACACCTCCATGGACCGGTTTTCCCGGTAATCCGTATTTGAC (site ACACGTCCTGT),0

row,Sequence,recombinant UMI read abundance (log10)
1,ACACCTCCATGGACCGGTTTTCCCGGTAATCCGTATTTGAC (site ACACTTCCTGT),0
2,ACACGAACATGGACCGGTTTTCCCGGTAATCCGTATTTGAC (site ACACGAACTGA),1.64
3,ACACGAACATGGACCGGTTTTCCCGGTAATCCGTATTTGAC (site ACACGAACTGC),0
4,ACACGAACATGGACCGGTTTTCCCGGTAATCCGTATTTGAC (site ACACGAACTGG),1.33
5,ACACGAACATGGACCGGTTTTCCCGGTAATCCGTATTTGAC (site ACACGAACTGT),2.62
6,ACACGAACATGGACCGGTTTTCCCGGTAATCCGTATTTGTG (site ACACGAACTAA),0.269
7,ACACGAACATGGACCGGTTTTCCCGGTAATCCGTATTTGTG (site ACACGAACTCA),1.91
8,ACACGAACATGGACCGGTTTTCCCGGTAATCCGTATTTGTG (site ACACGAACTGA),0
9,ACACGAACATGGACCGGTTTTCCCGGTAATCCGTATTTGTG (site ACACGAACTTA),0.766
10,ACACGACCATGGACCGGTTTTCCCGGTAATCCGTATTTGTC (site ACACGAACTGA),0.0114
11,ACACGACCATGGACCGGTTTTCCCGGTAATCCGTATTTGTC (site ACACGACCTGA),0
12,ACACGACCATGGACCGGTTTTCCCGGTAATCCGTATTTGTC (site ACACGAGCTGA),0
13,ACACGACCATGGACCGGTTTTCCCGGTAATCCGTATTTGTC (site ACACGATCTGA),1.22
14,ACACGCACATGGACCGGTTTTCCCGGTAATCCGTATTTGTC (site ACACGAACTGA),1.62
15,ACACGCACATGGACCGGTTTTCCCGGTAATCCGTATTTGTC (site ACACGCACTGA),2.85
16,ACACGCACATGGACCGGTTTTCCCGGTAATCCGTATTTGTC (site ACACGGACTGA),0
17,ACACGCACATGGACCGGTTTTCCCGGTAATCCGTATTTGTC (site ACACGTACTGA),0.934
18,ACACGGACATGGACCGGTTTTCCCGGTAATCCGTATTTGTC (site ACACGAACTGA),0
19,ACACGGACATGGACCGGTTTTCCCGGTAATCCGTATTTGTC (site ACACGCACTGA),0
